Key:
[1] = target: T1, Cyclin-dependent kinase 2 (Homo sapiens, UniProt P24941); assay: Inhibition of human CDK2 pretreated for 20 mins followed by [gamma-33P]-ATP addition and measured after 120 mins in presence of 10 uM ATP by radiometric Hot-SpotSM Kinase assay
[2] = target: T2, Receptor-type tyrosine-protein kinase FLT3 (Homo sapiens, UniProt P36888); assay: Inhibition of human FLT3 using EAIYAAPFAKKK and [gamma-33P]-ATP as substrate pretreated for 20 mins followed by [gamma-33P]-ATP addition and measured after 120 mins in presence of 10 uM ATP by radiometric Hot-SpotSM Kinase assay
T2 sequence (P36888 whole entry): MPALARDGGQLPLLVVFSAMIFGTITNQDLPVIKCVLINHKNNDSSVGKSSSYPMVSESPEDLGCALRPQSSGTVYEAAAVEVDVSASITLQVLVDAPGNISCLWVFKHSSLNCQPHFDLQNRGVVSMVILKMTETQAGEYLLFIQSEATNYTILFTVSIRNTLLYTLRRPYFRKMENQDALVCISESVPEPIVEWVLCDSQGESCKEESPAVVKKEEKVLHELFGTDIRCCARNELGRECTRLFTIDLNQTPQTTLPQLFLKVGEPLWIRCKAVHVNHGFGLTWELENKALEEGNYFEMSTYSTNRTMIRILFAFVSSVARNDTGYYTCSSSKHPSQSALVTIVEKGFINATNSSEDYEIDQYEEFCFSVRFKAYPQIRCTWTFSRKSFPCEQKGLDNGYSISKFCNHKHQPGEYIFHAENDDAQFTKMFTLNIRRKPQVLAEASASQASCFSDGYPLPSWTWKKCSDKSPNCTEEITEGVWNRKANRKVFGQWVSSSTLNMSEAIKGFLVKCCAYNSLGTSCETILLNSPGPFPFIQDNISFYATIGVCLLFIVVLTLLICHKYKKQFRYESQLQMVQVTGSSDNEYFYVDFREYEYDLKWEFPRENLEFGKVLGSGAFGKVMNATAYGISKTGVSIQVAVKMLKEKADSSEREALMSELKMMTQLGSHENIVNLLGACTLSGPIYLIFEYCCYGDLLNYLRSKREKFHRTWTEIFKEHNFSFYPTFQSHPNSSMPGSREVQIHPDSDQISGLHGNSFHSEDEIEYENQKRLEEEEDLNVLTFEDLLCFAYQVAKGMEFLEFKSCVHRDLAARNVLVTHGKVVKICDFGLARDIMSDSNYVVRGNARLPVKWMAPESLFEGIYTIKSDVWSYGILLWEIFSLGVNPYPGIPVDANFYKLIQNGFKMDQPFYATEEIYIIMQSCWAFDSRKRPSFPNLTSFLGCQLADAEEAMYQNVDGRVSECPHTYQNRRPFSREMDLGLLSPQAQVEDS

[3] = target: T3, Cyclin-dependent kinase 6 (Homo sapiens, UniProt Q00534); assay: Inhibition of human CDK6 pretreated for 20 mins followed by [gamma-33P]-ATP addition and measured after 120 mins in presence of 10 uM ATP by radiometric Hot-SpotSM Kinase assay
[4] = system: K562; assay: Antiproliferative activity against human K562 cells deficit of oncogenic FLT3 assessed as inhibition of cell growth; assay type: functional, cell-based
[5] = system: BaF3; assay: cells; assay type: functional, cell-based; details: Mus musculus, BaF3, 72 h
Description: Antiproliferative activity against mouse BaF3 cells harboring FLT3 ITD/F691L mutant assessed as inhibition of cell growth incubated for 72 hrs

[6] = Toxicity against nu/nu mouse xenografted with human MV4-11 cells assessed as decrease in body weight at 50 mg/kg, po qd for 2 weeks; assay type: organism-based; details: in vivo, 336 h
[7] = Toxicity against nu/nu mouse xenografted with human MV4-11 cells assessed as animal's mortality at 50 mg/kg, po qd for 2 days; assay type: organism-based; details: in vivo, 48 h, time 2 day
[8] = system: MV4-11; assay: animal or person; assay type: functional, Homo sapiens; details: Mus musculus, MV4-11, 336 h, route po, time 2 weeks
Description: Antitumor activity against human MV4-11 cells xenografted in nu/nu mouse assessed as inhibition of tumor growth at 50 mg/kg, po qd for 2 weeks by vernier caliper analysis

[9] = system: HL-60; assay: Antiproliferative activity against human HL-60 cells expressing low level wild type FLT3 assessed as inhibition of cell growth; assay type: functional, cell-based
[10] = system: MV4-11; assay: Antiproliferative activity against human MV4-11 cells harboring FLT3 ITD mutant assessed as inhibition of cell growth incubated for 72 hrs by CellTiter-Glo luminescent assay; assay type: functional, cell-based; details: MV4-11, 72 h
[11] = system: BaF3; assay: cells; assay type: functional, cell-based; details: Mus musculus, BaF3, 72 h; remark: listed apart in the source
Description: Antiproliferative activity against mouse BaF3 cells harboring FLT3 ITD/D835V mutant assessed as inhibition of cell growth incubated for 72 hrs

[12] = system: BaF3; assay: Antiproliferative activity against mouse BaF3 cells harboring FLT3 D835V mutant assessed as inhibition of cell growth incubated for 72 hrs; assay type: functional, cell-based; details: BaF3, 72 h
[13] = Cytotoxicity against human PBMC cells assessed as inhibition of cell growth; assay type: toxicity, cell-based
[14] = Cytotoxicity against mouse BaF3 cells assessed as inhibition of cell growth incubated for 72 hrs; assay type: toxicity, cell-based
[15] = system: BaF3; assay: cells; assay type: functional, cell-based; details: Mus musculus, BaF3, 72 h; remark: listed apart in the source
Description: Antiproliferative activity against mouse BaF3 cells harboring FLT3 ITD/N676D mutant assessed as inhibition of cell growth incubated for 72 hrs

[16] = system: MOLM-13; assay: Antiproliferative activity against human MOLM-13 cells harboring FLT3 ITD mutant assessed as inhibition of cell growth; assay type: functional, cell-based
[17] = system: BaF3; assay: cells; assay type: functional, cell-based; details: Mus musculus, BaF3, 72 h; remark: listed apart in the source
Description: Antiproliferative activity against mouse BaF3 cells harboring FLT3 ITD mutant assessed as inhibition of cell growth incubated for 72 hrs

[18] = target: T1, Cyclin-dependent kinase 2; assay: Inhibition of human CDK2 assessed as enzyme activity at 0.123 uM pretreated for 20 mins followed by [gamma-33P]-ATP addition and measured after 120 mins in presence of 10 uM ATP by radiometric Hot-SpotSM Kinase assay; set-up: scale not given: the % may be the effect or the level left; details: time 140.0 min
[19] = target: T3, Cyclin-dependent kinase 6; assay: Inhibition of human CDK6 assessed as enzyme activity at 0.123 uM pretreated for 20 mins followed by [gamma-33P]-ATP addition and measured after 120 mins in presence of 10 uM ATP by radiometric Hot-SpotSM Kinase assay; set-up: scale not given: the % may be the effect or the level left; details: time 140.0 min
[20] = target: Receptor-type tyrosine-protein kinase FLT3 (Homo sapiens) (UniProt P36888); assay: Inhibition of human FLT3 assessed as enzyme activity using EAIYAAPFAKKK and [gamma-33P]-ATP as substrate at 0.123 uM pretreated for 20 mins followed by [gamma-33P]-ATP addition and measured after 120 mins in presence of 10 uM ATP by radiometric Hot-SpotSM Kinase assay; set-up: scale not given: the % may be the effect or the level left; details: time 140.0 min
[21] = system: THP-1; assay: Antiproliferative activity against human THP-1 cells expressing wild type FLT3 assessed as inhibition of cell growth; assay type: functional, cell-based
[22] = system: U-937; assay: Antiproliferative activity against human U-937 cells expressing low level wild type FLT3 assessed as inhibition of cell growth; assay type: functional, cell-based

T3 sequence (Q00534 whole entry): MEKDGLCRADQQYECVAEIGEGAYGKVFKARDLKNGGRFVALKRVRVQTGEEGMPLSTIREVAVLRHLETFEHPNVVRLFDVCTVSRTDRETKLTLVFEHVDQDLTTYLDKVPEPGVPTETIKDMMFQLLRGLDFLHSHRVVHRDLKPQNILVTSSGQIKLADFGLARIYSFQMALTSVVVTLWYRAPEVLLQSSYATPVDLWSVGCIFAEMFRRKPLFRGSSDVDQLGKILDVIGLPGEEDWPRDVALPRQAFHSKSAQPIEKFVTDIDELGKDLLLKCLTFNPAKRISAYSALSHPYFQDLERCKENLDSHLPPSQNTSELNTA

Row | SMILES | IC50 [2] [nM] | IC50 [10] [nM] | Activity [18] [%] | Activity [19] [%] | further results
1 | CN1CCN(Cc2ccc(NC(=O)c3n[nH]cc3Nc3ccncn3)cc2)CC1 | 7.29 | – | – | – | IC50 [1]: 23 nM; IC50 [3]: 14.3 nM
2 | CN1CCN(Cc2ccc(NC(=O)c3n[nH]cc3Nc3ncnc4[nH]ccc34)cc2)CC1 | – | 7 | – | – | IC50 [4]: 795 nM; IC50 [5]: 56 nM; Activity [6]: Toxic; Activity [7]: Toxic; inhibition in vivo at 50 mg/kg [8]: 94.6%; IC50 [9]: 770 nM; IC50 [11]: 8 nM; IC50 [12]: 39 nM; IC50 [13]: 126 nM; IC50 at 72 h [14]: 155 nM; IC50 [15]: 73 nM; IC50 [16]: 5.4 nM; IC50 [17]: 38 nM
3 | O=C(Nc1ccc(N2CCNCC2)cc1)c1n[nH]cc1Nc1cc(C2CCCC2)ncn1 | 15.4 | 100 | 79.3 | 86.3 | –
4 | O=C(Nc1ccc(N2CCNCC2)cc1)c1n[nH]cc1Nc1cc(NC2CCCC2)ncn1 | 21.2 | 100 | 69.5 | 72.9 | –
5 | O=C(Nc1ccc(N2CCNCC2)cc1)c1n[nH]cc1Nc1cc(OC2CCCC2)ncn1 | 7.84 | 110 | – | – | IC50 [1]: 135 nM; IC50 [3]: 158 nM
6 | O=C(Nc1ccc(N2CCOCC2)cc1)c1n[nH]cc1Nc1cc(C2CCCC2)ncn1 | 58.3 | – | 83.3 | 93.3 | –
7 | O=C(Nc1ccc(N2CCNCC2)cc1)c1n[nH]cc1Nc1cc(-c2ccccc2)ncn1 | 45.2 | – | 89.3 | 101 | –
8 | O=C(Nc1ccc(N2CCNCC2)cc1)c1n[nH]cc1Nc1cc(OCC2CCCC2)ncn1 | 11.3 | 90 | 51 | 51.3 | –
9 | O=C(Nc1ccc(N2CCNCC2)cc1)c1n[nH]cc1Nc1cc(OC2CCCCCC2)ncn1 | 28.8 | – | 54.6 | 58.1 | –
10 | Cc1cc(Oc2ccccc2)nc(Nc2c[nH]nc2C(=O)Nc2ccc(N3CCNCC3)cc2)n1 | – | – | 78.3 | 91.5 | Activity [20]: 71.7%
11 | O=C(Nc1ccc(N2CCNCC2)cc1)c1n[nH]cc1Nc1cc(OC2CCCCC2)ncn1 | 19.2 | 130 | 53.1 | 58.4 | –
12 | O=C(Nc1ccc(N2CCNCC2)cc1)c1n[nH]cc1Nc1cc(C2CC2)ncn1 | 8.42 | 80 | – | – | IC50 [1]: 193 nM; IC50 [3]: 125 nM
13 | O=C(Nc1ccc(N2CCNCC2)cc1)c1n[nH]cc1Nc1cc(C2=CCOCC2)ncn1 | 25.1 | – | 76.5 | 86.4 | –
14 | O=C(Nc1ccc(N2CCNCC2)cc1)c1n[nH]cc1Nc1cc(-c2ccoc2)ncn1 | 41.3 | – | 83.5 | 87.5 | –
15 | O=C(Nc1ccc(N2CCNCC2)cc1)c1n[nH]cc1Nc1cc(C2CCCCCC2)ncn1 | 28.9 | – | 84.8 | 94.3 | –
16 | Cc1nc(Nc2c[nH]nc2C(=O)Nc2ccc(N3CCNCC3)cc2)cc(Oc2ccccc2)n1 | 11.2 | – | 82.3 | 88.8 | –
17 | CO[C@@H]1[C@H](N(C)C(=O)c2ccccc2)C[C@H]2O[C@]1(C)n1c3ccccc3c3c4c(c5c6ccccc6n2c5c31)C(=O)NC4 [MIDOSTAURIN] | – | – | – | – | IC50 [12]: 4 nM; IC50 at 72 h [14]: 320 nM
18 | CC(C)(C)c1cc(NC(=O)Nc2ccc(-c3cn4c(n3)sc3cc(OCCN5CCOCC5)ccc34)cc2)no1 [QUIZARTINIB] | – | 5.3 | – | – | IC50 [4]: 291 nM; IC50 [21]: 201 nM; IC50 [9]: 771 nM; IC50 [11]: 93 nM; IC50 [12]: 100 nM; IC50 [13]: 1260 nM; IC50 at 72 h [14]: > 10000 nM; IC50 [22]: 251 nM; IC50 [16]: 15.2 nM; IC50 [17]: 1 nM
19 | Cc1cnc(Nc2c[nH]nc2C(=O)Nc2ccc(N3CCNCC3)cc2)nc1Oc1ccccc1 | – | – | 88.6 | 88.4 | Activity [20]: 83%
20 | CN1CCN(Cc2ccc(NC(=O)c3n[nH]cc3Nc3cc(C4CCCC4)ncn3)cc2)CC1 | 19.4 | 200 | 78.8 | 88.9 | –
21 | O=C(Nc1ccc(CN2CCOCC2)cc1)c1n[nH]cc1Nc1cc(C2CCCC2)ncn1 | 29.7 | 210 | 71.4 | 92.6 | –
